In the OPERA property sets (Mansouri et al. 2018):

Conditions: not given

Compound | melting point | log10 Koc (L/kg) | ready biodegradability | boiling point | log10 vapour pressure (mmHg) | log10 Henry constant (atm·m³/mol)
O=[N+]([O-])c1cccc(CCl)c1 | 46 °C | – | – | – | – | –
CN(C)c1ccc(O)cc1 | 77 °C | – | – | – | – | –
CCOC(=O)[N-]c1c[n+](N2CCOCC2)no1 | 140 °C | – | – | – | – | –
C(COCCOCC1CO1)OCCOCC1CO1 (stereo not drawn) | -13 °C | – | – | – | – | –
C=C(C)[C@]1(O)C2OC(=O)C1[C@]1(O)[C@H]3O[C@H]3[C@]3(CO3)[C@]1(C)C2O (stereo partly drawn) | 225 °C | – | – | – | – | –
CCNC(=O)Nc1ncc([N+](=O)[O-])s1 | 228 °C | – | – | – | – | –
COc1cc(C(=O)NCCCCCC(=O)O)cc(OC)c1OC | 122 °C | – | – | – | – | –
CCCCCCCCC(CCCCCCCC)C(=O)O | 38.5 °C | – | – | – | – | –
COCCOC1=C(N2CC2)C(=O)C(OCCOC)=C(N2CC2)C1=O | 80 °C | – | – | – | – | –
CCCCN(C)C(=O)Nc1ccc(Cl)c(Cl)c1 | 102 °C | 3.4 | not readily biodegradable | – | – | –
FC(Cl)=C(F)Cl | -130 °C | – | – | 21.1 °C | 2.95 | –
Fc1cccc2[nH]nnc12 | – | 1.87 | – | – | – | –
BrC(Br)Br | 8 °C | 2.06 | not readily biodegradable | 149 °C | 0.732 | -3.27
C=C(C)CC(C)O (stereo not drawn) | – | – | – | 129 °C | – | –
CCOS(=O)(=O)Cl | – | – | – | 152 °C | – | –
FC(F)(F)C(F)(F)C(F)(F)C(F)(F)C(F)(F)C(F)(F)F | -87.1 °C | – | – | 56.6 °C | 2.34 | –
CCCCOC(=O)CCCCC(=O)OCCCC | -32.4 °C | – | readily biodegradable | – | – | –
CCCCCCCCCCCCCCCCCCCCCCCCCCCCCCCCCCCCCCCCCCCC | 87.5 °C | – | readily biodegradable | 548 °C | – | –
CCc1cc(C)c(C)cc1C | -13.5 °C | – | – | 213 °C | – | –
Clc1ccc(CSC(Cn2cncn2)=Nc2ccc(Cl)cc2Cl)cc1 | 90 °C | – | – | – | -9.2 | –
OCC(F)(F)C(F)(F)C(F)(F)CO | 79.5 °C | – | – | – | – | –
CCCCCCCCCCCCCCCC(=O)OCC | 24 °C | – | – | – | -4.63 | –
Cn1ccccc1=O | 31 °C | – | – | 250 °C | – | –
CC(C)C(=O)O | -46 °C | – | readily biodegradable | 154 °C | 0.258 | -6.05
c1ccc(C2c3ccccc3-c3ccccc32)cc1 | 147 °C | – | – | – | – | –
O=C1c2cccc(O)c2C(=O)c2c(O)cccc21 | 193 °C | – | – | – | – | –

Compound | melting point | log10 Koc (L/kg) | ready biodegradability | boiling point | log10 vapour pressure (mmHg) | log10 Henry constant (atm·m³/mol)
O=C(O)C=Cc1cccc(Br)c1 | 178 °C | – | – | – | – | –
Nc1c(Cl)cc(Cl)cc1Br | 83.5 °C | – | – | 273 °C | – | –
Cc1cccc(CO)c1 | – | – | – | 216 °C | – | –
CC(C)N | -95.1 °C | – | – | 31.7 °C | 2.76 | –
CCN(CC)C(=O)C1CN2CCc3cc(OC)c(OC)cc3C2CC1OC(C)=O (stereo not drawn) | 131 °C | – | – | – | – | –
Cc1ccccc1OC(=O)Oc1ccccc1C | 60 °C | – | – | – | – | –
CC(C)(C)C(=O)C(=O)O | 90.5 °C | – | – | 189 °C | – | –
NCCCCCC(=O)O | 205 °C | – | – | – | – | –
CC1CS1 (stereo not drawn) | -91 °C | – | – | 72.5 °C | – | –
CC(F)F | -117 °C | – | – | -24.9 °C | 3.66 | -1.69
C=C(C)c1ccccc1C | – | – | – | 175 °C | – | –
COC(=O)C(C)Cl (stereo not drawn) | – | – | readily biodegradable | 132 °C | – | –
CCN(CC)[N+](=O)[O-] | – | – | – | 206 °C | – | –
O=c1cc[nH]c2cc(C(F)(F)F)ccc12 | 268 °C | – | – | – | – | –
OCC1CCCCC1 | -43 °C | – | – | 183 °C | – | –
CN1CCC(CN2c3ccccc3Sc3ccccc32)C1 (stereo not drawn) | 87.5 °C | – | – | – | – | –
CC1=CC(=O)CCC1(C)C | – | – | – | 217 °C | – | –
CC(C)(C)c1ccc(Br)cc1 | 19 °C | – | – | 232 °C | – | –
C=CC(=O)NC(C)C | 64 °C | – | – | – | – | –
COc1cc(C#N)cc(OC)c1OC | 93.8 °C | – | – | – | – | –
Cc1[nH]c2ccccc2c1C | 106 °C | – | – | 285 °C | – | –
Nc1cc(F)c(F)c(F)c1F | 28 °C | – | – | – | – | –
COC(C)CCO (stereo not drawn) | – | – | readily biodegradable | 157 °C | – | –
C#CC=O | – | – | – | 60 °C | – | –
Pc1ccccc1 | – | – | – | 160 °C | – | –
Clc1cc(Cl)c2ccccc2c1 | 62.3 °C | – | – | 291 °C | – | –

Compound | melting point | log10 Koc (L/kg) | ready biodegradability | boiling point | log10 vapour pressure (mmHg) | log10 Henry constant (atm·m³/mol)
FC(F)(F)C(F)(F)C(Cl)(Cl)Cl | -80 °C | – | – | 74 °C | – | –
CNC(=O)OCc1cccc(COC(=O)NC)n1 | 136 °C | – | – | – | – | –
Cc1ccsc1 | -69 °C | – | not readily biodegradable | 116 °C | 1.35 | –
FC(Cl)C(F)(F)Br (stereo not drawn) | – | – | – | 52.5 °C | – | –
C=CC(=O)OCC(CC)CC | -70 °C | – | – | – | 0.23 | –
Cc1ncc(CO)c(C=O)c1O.Cl | 165 °C | – | – | – | – | –
CCOC(=O)C=CCC(=O)OCC | – | – | – | 237 °C | – | –
CC[SiH2]CC | -134 °C | – | – | 57 °C | – | –
COC(=O)C1CC1 | – | – | – | 115 °C | – | –
Sc1ccccc1S | 28.5 °C | – | – | 238 °C | – | –
OC[C@@H](O)[C@@H](O)CO | 122 °C | – | – | 330 °C | – | –
O=C(C(Cl)(Cl)Cl)C(Cl)(Cl)Cl | -2 °C | – | – | 203 °C | – | –
Cc1ccc(N)c(Br)c1 | 26 °C | – | – | 240 °C | – | –
C[C@]12CC[C@@H]3c4ccc(OC5CCCC5)cc4CC[C@H]3[C@@H]1C[C@@H](O)[C@@H]2O | 99 °C | – | – | – | – | –
C=Cc1ccco1 | -94 °C | – | – | 99.5 °C | – | –
O=[N+]([O-])c1cccc(Cl)c1 | 46 °C | – | not readily biodegradable | 236 °C | -1.01 | -4.87
O=C=Nc1ccc(Cc2ccc(N=C=O)cc2)cc1 | 38 °C | – | – | – | – | –
CC(C)CC(=O)OC(=O)CC(C)C | – | – | – | 215 °C | – | –
COc1cc(Oc2ccc(Cl)cc2Cl)ccc1[N+](=O)[O-] | 114 °C | – | – | – | -4.85 | –
c1ccc2c(c1)-c1cc3ccccc3c3cc4ccccc4c-2c13 | 232 °C | – | – | – | – | –
O=C(Cl)c1ccc(Cl)cc1 | 16 °C | – | – | 222 °C | – | –
CCCCCCCCCCCCN(C)C | 22 °C | – | readily biodegradable | 260 °C | – | –
c1ccc2[nH]ncc2c1 | 148 °C | – | – | 269 °C | – | –
CCCCCCCCC(C)C | -48.9 °C | – | – | 189 °C | -0.22 | –
CN(C)C(=O)Nc1ccccc1 | 134 °C | 1.4 | readily biodegradable | – | -4.43 | –
CCSC(=O)N(CC(C)C)CC(C)C | – | 2.11 | – | – | -1.89 | –

Compound | melting point | log10 Koc (L/kg) | ready biodegradability | boiling point | log10 vapour pressure (mmHg) | log10 Henry constant (atm·m³/mol)
O=NN1CCOCC1 | 29 °C | – | – | 225 °C | – | –
Cc1ccc(C(=O)c2csc(S(N)(=O)=O)c2)cc1 | 176 °C | – | – | – | – | –
Cc1ccc(C(=O)N(C)C)cc1 | 41 °C | – | – | – | – | –
O=C1c2ccccc2C(=O)N1Cc1ccccc1 | 116 °C | – | – | – | – | –
CC1=CC(=O)CCC1 | -21 °C | – | – | 201 °C | – | –
CCCCC1C(=O)N(c2ccccc2)N(c2ccccc2)C1=O | 105 °C | – | – | – | – | –
CCN(CC)C(=O)c1cccnc1 | 25 °C | – | – | 298 °C | – | –
C#CC(O)(CC)CC | – | – | – | 138 °C | – | –
CN1CC[C@]23c4c5ccc(O)c4O[C@H]2C(=O)CC[C@@]3(O)[C@H]1C5 | 248 °C | – | – | – | – | –
Clc1ccc(Cl)c(-c2ccc(Cl)c(Cl)c2)c1 | 106 °C | 4.86 | – | – | -4.39 | -4
CCOc1ccc(NC(=O)CC(C)O)cc1 (stereo not drawn) | 160 °C | – | – | – | – | –
CCN(CC)C(N)=O | 75 °C | – | – | – | – | –
O=C(Cl)C=Cc1ccccc1 | 36 °C | – | – | 257 °C | – | –
CC(C)(C)C(=O)C(C)(C)C | -25.2 °C | – | – | 152 °C | – | –
CCCCCCCCC(=O)OCCCCCCC | -15.5 °C | – | – | – | – | –
CCOCCc1ccc(OCCN=c2[nH]cnc(CC)c2Cl)c(C)c1C | 70 °C | – | – | – | – | –
Oc1ccc2c(c1)CCCC2 | 57 °C | – | – | 276 °C | – | –
CCCOCCO | – | – | – | 150 °C | 0.494 | –
O=C1CN(/N=C/c2ccc([N+](=O)[O-])o2)C(=O)N1CN1CCOCC1 | 206 °C | – | – | – | – | –
COc1cc2c(c3oc(=O)c4c(c13)CCOC4=O)C1C=COC1O2 (stereo not drawn) | 245 °C | – | – | – | – | –
O=C(O)c1ccccc1-c1ccccc1 | 114 °C | – | – | 344 °C | – | –
CN1C(=O)CN=C(c2ccccc2)c2cc([N+](=O)[O-])ccc21 | 82 °C | – | – | – | – | –
O=C(Cl)CCl | -22 °C | – | – | 106 °C | 1.4 | –
Cl.NCCc1ccc(O)c(O)c1 | 249 °C | – | – | – | – | –
Clc1ccccc1C1CO1 (stereo not drawn) | – | – | not readily biodegradable | – | – | –

Same assay, conditions: fish

Compound | log10 BCF | log10 biotransformation half-life (days)
BrC(Br)Br | 1.13 | -0.7
C=C(C)CCCCCCC | – | -0.06
Cc1ccsc1 | 0.72 | -1.27
O=[N+]([O-])c1cccc(Cl)c1 | 1.89 | –
COc1cc(Oc2ccc(Cl)cc2Cl)ccc1[N+](=O)[O-] | 3.59 | –
CCCCCCCCC(C)C | – | 0.1
Clc1ccc(Cl)c(-c2ccc(Cl)c(Cl)c2)c1 | 5.08 | 2.65
